Measured values as given in the NIST ThermoML archive (doi:10.1016/j.jct.2003.11.008).
± gives the expanded uncertainty stated by the source.

Columns and labels:
[1] = excess molar enthalpy (molar enthalpy of mixing); xn = mol fraction of the nth substance listed; conditions: 318.15 K, 101.3 kPa, Liquid
[2] = xn = mol fraction of the nth substance listed; conditions: 318.15 K, 101.3 kPa, Liquid

CCCCOC(C)=O [butyl ethanoate] + CCCCCCC
Conditions | excess molar enthalpy [kcal/mol] | excess molar volume [m3/mol]
[1], x1 = 0.0596 | 0.0656 ± 0.00139 | –
[1], x1 = 0.1274 | 0.12 ± 0.00222 | –
[1], x1 = 0.1982 | 0.165 ± 0.00287 | –
[1], x1 = 0.2667 | 0.196 ± 0.00335 | –
[1], x1 = 0.3335 | 0.218 ± 0.00382 | –
[1], x1 = 0.3922 | 0.23 ± 0.00406 | –
[1], x1 = 0.4492 | 0.235 ± 0.00406 | –
[1], x1 = 0.5003 | 0.236 ± 0.00406 | –
[1], x1 = 0.5104 | 0.235 ± 0.00406 | –
[1], x1 = 0.5381 | 0.234 ± 0.00406 | –
[1], x1 = 0.5567 | 0.232 ± 0.00406 | –
[1], x1 = 0.6057 | 0.224 ± 0.00382 | –
[1], x1 = 0.6593 | 0.211 ± 0.00359 | –
[1], x1 = 0.7144 | 0.19 ± 0.00335 | –
[1], x1 = 0.7729 | 0.161 ± 0.00287 | –
[1], x1 = 0.8331 | 0.126 ± 0.00232 | –
[1], x1 = 0.8932 | 0.0849 ± 0.0017 | –
[1], x1 = 0.9488 | 0.0439 ± 0.00105 | –
[2], x1 = 0.0555 | – | 1.92e-07 ± 1.6e-08
[2], x1 = 0.1132 | – | 3.36e-07 ± 1.7e-08
[2], x1 = 0.1672 | – | 4.34e-07 ± 1.8e-08
[2], x1 = 0.22 | – | 5.12e-07 ± 1.8e-08
[2], x1 = 0.2722 | – | 5.77e-07 ± 1.8e-08
[2], x1 = 0.3229 | – | 6.09e-07 ± 1.8e-08
[2], x1 = 0.3726 | – | 6.31e-07 ± 1.8e-08
[2], x1 = 0.4298 | – | 6.52e-07 ± 1.9e-08
[2], x1 = 0.4755 | – | 6.52e-07 ± 1.9e-08
[2], x1 = 0.5265 | – | 6.24e-07 ± 1.8e-08
[2], x1 = 0.5779 | – | 5.89e-07 ± 1.8e-08
[2], x1 = 0.6271 | – | 5.55e-07 ± 1.8e-08
[2], x1 = 0.6607 | – | 5.13e-07 ± 1.8e-08
[2], x1 = 0.7709 | – | 3.86e-07 ± 1.7e-08
[2], x1 = 0.8611 | – | 2.64e-07 ± 1.7e-08
[2], x1 = 0.9342 | – | 1.22e-07 ± 1.6e-08

CCCCOC(C)=O [butyl ethanoate] + CCCCCCCCC
Conditions | excess molar enthalpy [kcal/mol] | excess molar volume [m3/mol]
[1], x1 = 0.0779 | 0.0816 ± 0.00165 | –
[1], x1 = 0.1485 | 0.146 ± 0.00263 | –
[1], x1 = 0.2301 | 0.2 ± 0.00359 | –
[1], x1 = 0.3059 | 0.237 ± 0.00406 | –
[1], x1 = 0.3775 | 0.261 ± 0.0043 | –
[1], x1 = 0.442 | 0.271 ± 0.00454 | –
[1], x1 = 0.5 | 0.272 ± 0.00454 | –
[1], x1 = 0.5519 | 0.266 ± 0.00454 | –
[1], x1 = 0.5963 | 0.256 ± 0.0043 | –
[1], x1 = 0.6435 | 0.243 ± 0.00406 | –
[1], x1 = 0.6936 | 0.227 ± 0.00382 | –
[1], x1 = 0.7461 | 0.203 ± 0.00359 | –
[1], x1 = 0.8009 | 0.172 ± 0.00311 | –
[1], x1 = 0.8533 | 0.134 ± 0.00239 | –
[1], x1 = 0.9067 | 0.0904 ± 0.00177 | –
[1], x1 = 0.9568 | 0.0449 ± 0.00108 | –
[2], x1 = 0.0761 | – | 2.63e-07 ± 1.7e-08
[2], x1 = 0.1325 | – | 4.29e-07 ± 1.7e-08
[2], x1 = 0.1914 | – | 5.63e-07 ± 1.8e-08
[2], x1 = 0.2533 | – | 6.69e-07 ± 1.9e-08
[2], x1 = 0.3151 | – | 7.6e-07 ± 1.9e-08
[2], x1 = 0.3713 | – | 8.09e-07 ± 1.9e-08
[2], x1 = 0.4229 | – | 8.37e-07 ± 1.9e-08
[2], x1 = 0.4749 | – | 8.55e-07 ± 1.9e-08
[2], x1 = 0.5222 | – | 8.55e-07 ± 1.9e-08
[2], x1 = 0.5765 | – | 8.31e-07 ± 1.9e-08
[2], x1 = 0.6275 | – | 7.98e-07 ± 1.9e-08
[2], x1 = 0.6744 | – | 7.55e-07 ± 1.9e-08
[2], x1 = 0.7062 | – | 7.07e-07 ± 1.9e-08
[2], x1 = 0.8023 | – | 5.38e-07 ± 1.8e-08
[2], x1 = 0.8838 | – | 3.43e-07 ± 1.7e-08
[2], x1 = 0.9444 | – | 1.75e-07 ± 1.6e-08

CCOC(C)=O [ethyl acetate] + CCCCCCC
Conditions | excess molar enthalpy [kcal/mol] | excess molar volume [m3/mol]
[1], x1 = 0.0803 | 0.113 ± 0.00213 | –
[1], x1 = 0.1683 | 0.2 ± 0.00359 | –
[1], x1 = 0.2488 | 0.27 ± 0.00454 | –
[1], x1 = 0.323 | 0.317 ± 0.00526 | –
[1], x1 = 0.395 | 0.346 ± 0.00574 | –
[1], x1 = 0.4614 | 0.359 ± 0.00598 | –
[1], x1 = 0.5037 | 0.361 ± 0.00598 | –
[1], x1 = 0.546 | 0.363 ± 0.00598 | –
[1], x1 = 0.5784 | 0.357 ± 0.00598 | –
[1], x1 = 0.5813 | 0.357 ± 0.00598 | –
[1], x1 = 0.6222 | 0.341 ± 0.00574 | –
[1], x1 = 0.6647 | 0.322 ± 0.00526 | –
[1], x1 = 0.7146 | 0.296 ± 0.00502 | –
[1], x1 = 0.7646 | 0.26 ± 0.0043 | –
[1], x1 = 0.8157 | 0.217 ± 0.00382 | –
[1], x1 = 0.8649 | 0.17 ± 0.00311 | –
[1], x1 = 0.9129 | 0.115 ± 0.00217 | –
[1], x1 = 0.9591 | 0.0596 ± 0.00131 | –
[2], x1 = 0.0808 | – | 4.63e-07 ± 1.8e-08
[2], x1 = 0.143 | – | 7.33e-07 ± 1.9e-08
[2], x1 = 0.2084 | – | 9.35e-07 ± 2e-08
[2], x1 = 0.2751 | – | 1.105e-06 ± 2.1e-08
[2], x1 = 0.3329 | – | 1.204e-06 ± 2.1e-08
[2], x1 = 0.3968 | – | 1.263e-06 ± 2.1e-08
[2], x1 = 0.4462 | – | 1.303e-06 ± 2.2e-08
[2], x1 = 0.5057 | – | 1.309e-06 ± 2.2e-08
[2], x1 = 0.5536 | – | 1.289e-06 ± 2.1e-08
[2], x1 = 0.6019 | – | 1.236e-06 ± 2.1e-08
[2], x1 = 0.6506 | – | 1.163e-06 ± 2.1e-08
[2], x1 = 0.6848 | – | 1.107e-06 ± 2.1e-08
[2], x1 = 0.7249 | – | 1.019e-06 ± 2e-08
[2], x1 = 0.8166 | – | 7.67e-07 ± 1.9e-08
[2], x1 = 0.8964 | – | 4.43e-07 ± 1.8e-08
[2], x1 = 0.9478 | – | 2.47e-07 ± 1.7e-08

CCCCCCCCCCCCCCCCC [heptadecane] + CCCCCOC(C)=O
Conditions | excess molar enthalpy [kcal/mol] | excess molar volume [m3/mol]
[1], x2 = 0.0881 | 0.101 ± 0.00194 | –
[1], x2 = 0.1856 | 0.188 ± 0.00335 | –
[1], x2 = 0.2815 | 0.259 ± 0.0043 | –
[1], x2 = 0.3678 | 0.306 ± 0.00502 | –
[1], x2 = 0.4492 | 0.331 ± 0.0055 | –
[1], x2 = 0.5202 | 0.339 ± 0.00574 | –
[1], x2 = 0.5818 | 0.337 ± 0.0055 | –
[1], x2 = 0.6246 | 0.326 ± 0.0055 | –
[1], x2 = 0.6651 | 0.308 ± 0.00502 | –
[1], x2 = 0.7105 | 0.285 ± 0.00478 | –
[1], x2 = 0.7575 | 0.258 ± 0.0043 | –
[1], x2 = 0.807 | 0.223 ± 0.00382 | –
[1], x2 = 0.8571 | 0.18 ± 0.00311 | –
[1], x2 = 0.905 | 0.13 ± 0.00239 | –
[1], x2 = 0.9532 | 0.0725 ± 0.00151 | –
[2], x2 = 0.1194 | – | 3.74e-07 ± 1.7e-08
[2], x2 = 0.1753 | – | 5.21e-07 ± 1.8e-08
[2], x2 = 0.2989 | – | 7.64e-07 ± 1.9e-08
[2], x2 = 0.3689 | – | 8.67e-07 ± 2e-08
[2], x2 = 0.421 | – | 9.1e-07 ± 2e-08
[2], x2 = 0.4657 | – | 9.43e-07 ± 2e-08
[2], x2 = 0.5081 | – | 9.6e-07 ± 2e-08
[2], x2 = 0.5464 | – | 9.64e-07 ± 2e-08
[2], x2 = 0.6072 | – | 9.39e-07 ± 2e-08
[2], x2 = 0.6743 | – | 8.96e-07 ± 2e-08
[2], x2 = 0.7316 | – | 8.42e-07 ± 1.9e-08
[2], x2 = 0.7894 | – | 7.23e-07 ± 1.9e-08
[2], x2 = 0.8384 | – | 6.22e-07 ± 1.8e-08
[2], x2 = 0.8842 | – | 4.84e-07 ± 1.8e-08
[2], x2 = 0.9288 | – | 3.29e-07 ± 1.7e-08
[2], x2 = 0.9702 | – | 1.42e-07 ± 1.6e-08

CCCCCCCCCCCCCCCCC [heptadecane] + CCCCOC(C)=O
Conditions | excess molar enthalpy [kcal/mol] | excess molar volume [m3/mol]
[1], x2 = 0.0954 | 0.11 ± 0.0021 | –
[1], x2 = 0.1878 | 0.201 ± 0.00359 | –
[1], x2 = 0.2686 | 0.269 ± 0.00454 | –
[1], x2 = 0.3397 | 0.318 ± 0.00526 | –
[1], x2 = 0.4009 | 0.349 ± 0.00574 | –
[1], x2 = 0.4599 | 0.371 ± 0.00621 | –
[1], x2 = 0.5118 | 0.382 ± 0.00621 | –
[1], x2 = 0.5532 | 0.382 ± 0.00621 | –
[1], x2 = 0.5903 | 0.381 ± 0.00621 | –
[1], x2 = 0.5962 | 0.381 ± 0.00621 | –
[1], x2 = 0.6293 | 0.369 ± 0.00598 | –
[1], x2 = 0.6674 | 0.352 ± 0.00574 | –
[1], x2 = 0.7073 | 0.332 ± 0.0055 | –
[1], x2 = 0.7491 | 0.304 ± 0.00502 | –
[1], x2 = 0.7926 | 0.271 ± 0.00454 | –
[1], x2 = 0.8356 | 0.232 ± 0.00406 | –
[1], x2 = 0.8781 | 0.187 ± 0.00335 | –
[1], x2 = 0.9208 | 0.133 ± 0.00239 | –
[1], x2 = 0.9615 | 0.0716 ± 0.00151 | –
[2], x2 = 0.0632 | – | 1.97e-07 ± 1.6e-08
[2], x2 = 0.104 | – | 3.47e-07 ± 1.7e-08
[2], x2 = 0.1206 | – | 3.85e-07 ± 1.7e-08
[2], x2 = 0.1949 | – | 5.9e-07 ± 1.8e-08
[2], x2 = 0.2755 | – | 7.8e-07 ± 1.9e-08
[2], x2 = 0.3444 | – | 9e-07 ± 2e-08
[2], x2 = 0.4115 | – | 9.79e-07 ± 2e-08
[2], x2 = 0.4696 | – | 1.048e-06 ± 2e-08
[2], x2 = 0.515 | – | 1.082e-06 ± 2.1e-08
[2], x2 = 0.5713 | – | 1.082e-06 ± 2.1e-08
[2], x2 = 0.6623 | – | 1.03e-06 ± 2e-08
[2], x2 = 0.7646 | – | 9.06e-07 ± 2e-08
[2], x2 = 0.842 | – | 6.95e-07 ± 1.9e-08
[2], x2 = 0.8976 | – | 5.2e-07 ± 1.8e-08
[2], x2 = 0.9384 | – | 3.47e-07 ± 1.7e-08
[2], x2 = 0.9717 | – | 1.79e-07 ± 1.6e-08
